In patent US9409952B2, “Peptide-compound cyclization method” (Chugai Seiyaku Kabushiki Kaisha, priority 2011, dated 2016):
Like-named read-outs stand apart in the source and are kept apart here. Starred links: 1 amine or outer side, 2 acyl side, 3 side chain; linkers in the order of their positions; H or OH if unused. Positions of bridges follow the written chain, without caps; N, C: chain ends. Non-standard residues stand in square brackets, D forms with d. Residues, ends and D or L forms follow the SMILES beside them. *: point of attachment. NMeF = CN[C@@H](Cc1ccccc1)C(=O)O; NMeβAla = CN(CCC(=O)[*:2])[*:1]; NMeL = CN[C@@H](CC(C)C)C(=O)O; NMeA = CN[C@@H](C)C(=O)O; Piperidide = C1CCN(*)CC1; dNMeA = CN[C@H](C)C(=O)O; Sar = CNCC(=O)O; tBu = CC(C)(C)*

Assays:
[1] = Metabolic stability in human hepatic microsome; format: in vitro ADME; settings: microsomes
[2] = PAMPA (parallel artificial membrane permeability assay); format: in vitro ADME; settings: PAMPA
Outline: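 Artificial membrane was 10% (w/v) egg lecithin plus 0.5% (w/v) cholesterol in dodecane on a PVDF filter. A 10 mM DMSO stock was added at 0.5% (v/v) to donor buffer (50 mM MOPSO, pH 6.5, 5.0% glycocholic acid). After 18 h at 37 °C, LC/MS or LC/UV gave donor and acceptor levels for Pe.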

[3] = pH 7.4, human hepatic microsome, NADPH(+), read-out: CL NADPH(+)
[4] = membrane permeation rate (Pe), 50 mM MOPSO buffer pH 6.5 with 5.0% glycocholic acid, 37° C., 18 hours, read-out: iPAMPA Pe

Row | Structure (SMILES) | microsomal CLint at 1 uM ([1]; human, pH 7.4, CL NADPH(+)) [µL/min/mg] | Papp at 18 hours, 50 µM ([2]; pH 6.5) [×10⁻⁶ cm/s] | microsomal CLint at 1 uM [1, 3] [µL/min/mg] | Papp at 18 hours, 50 µM [2, 4] [×10⁻⁶ cm/s]
1 | CC[C@H](C)[C@H](NC(=O)[C@H](Cc1ccccc1)NC(=O)[C@@H]1CC(=O)N[C@@H](C)C(=O)N[C@@H]([C@@H](C)O)C(=O)N(C)CC(=O)N[C@@H](CC(C)C)C(=O)N2CCC[C@H]2C(=O)N(C)[C@@H](CC(C)C)C(=O)N[C@@H](Cc2ccccc2)C(=O)N(C)[C@@H](Cc2ccccc2)C(=O)N(C)[C@@H](CC(C)C)C(=O)N[C@@H](C)C(=O)N(C)[C@@H](CC(C)C)C(=O)N1)C(=O)N1CCCCC1 [DP-952] (AT[Sar]LP[NMeL]F[NMeF][NMeL]A[NMeL]DFI-Piperidide; lactam N-12) | 91 | 4.4 | – | –
2 | CC[C@H](C)[C@H](NC(=O)[C@@H]1CC(=O)N[C@@H](Cc2ccccc2)C(=O)N(C)[C@@H](CC(C)C)C(=O)N[C@@H](C)C(=O)N(C)[C@@H](CC(C)C)C(=O)N[C@@H](COC(C)(C)C)C(=O)N(C)[C@@H](CC(C)C)C(=O)N(C)[C@@H](CC(C)C)C(=O)N[C@@H]([C@@H](C)O)C(=O)N[C@@H](Cc2ccccc2)C(=O)N(C)[C@@H](Cc2ccccc2)C(=O)N(C)[C@@H](C)C(=O)N1)C(=O)N[C@H](C(=O)N1CCCCC1)[C@@H](C)CC [DP-953] (F[NMeL]A[NMeL]S(tBu)[NMeL][NMeL]TF[NMeF][NMeA]DII-Piperidide; lactam N-12) | – | – | 8 | 0.1
3 | CC[C@H](C)[C@H](NC(=O)[C@@H](NC(=O)[C@@H]1CC(=O)N(C)CCC(=O)N[C@@H](Cc2ccccc2)C(=O)N(C)[C@@H](Cc2ccccc2)C(=O)N(C)[C@@H](CC(C)C)C(=O)N[C@@H]([C@@H](C)O)C(=O)N(C)[C@@H](C)C(=O)N(C)[C@@H](CC(C)C)C(=O)N[C@@H](C(C)C)C(=O)N(C)[C@@H](CC(C)C)C(=O)N[C@@H](COC(C)(C)C)C(=O)N(C)[C@@H](CC(C)C)C(=O)N1)C(C)C)C(=O)N1CCCCC1 [DP-954] ([NMeβAla]F[NMeF][NMeL]T[NMeA][NMeL]V[NMeL]S(tBu)[NMeL]DVI-Piperidide; lactam N-12) | – | – | 26 | 0.1
4 | CC[C@H](C)[C@H](NC(=O)[C@@H]1CC(=O)N[C@@H](C)C(=O)N[C@@H]([C@@H](C)O)C(=O)N(C)CC(=O)N[C@@H](CC(C)C)C(=O)N2CCC[C@H]2C(=O)N(C)[C@@H](CC(C)C)C(=O)N[C@@H](Cc2ccccc2)C(=O)N(C)[C@@H](Cc2ccccc2)C(=O)N(C)[C@@H](C)C(=O)N(C)[C@@H](CC(C)C)C(=O)N[C@@H](C)C(=O)N(C)[C@@H](CC(C)C)C(=O)N1)C(=O)N1CCCCC1 [DP-955] (AT[Sar]LP[NMeL]F[NMeF][NMeA][NMeL]A[NMeL]DI-Piperidide; lactam N-13) | – | – | 30 | 6.3
5 | CC[C@H](C)[C@@H]1NC(=O)[C@H](C)N(C)C(=O)[C@H](CC(C)C)N(C)C(=O)[C@H](Cc2ccccc2)NC(=O)[C@H](CC(C)C)N(C)C(=O)[C@H](CC(C)C)N(C)C(=O)[C@H](C)N(C)C(=O)[C@H](Cc2ccccc2)N(C)C(=O)[C@@H](C)N(C)C(=O)C[C@@H](C(=O)N[C@H](C(=O)N2CCCCC2)[C@@H](C)CC)NC(=O)[C@H](CC(C)C)N(C)C(=O)[C@H]([C@@H](C)O)NC(=O)[C@H](CO)NC1=O [DP-956] ([dNMeA][NMeF][NMeA][NMeL][NMeL]F[NMeL][NMeA]IST[NMeL]DI-Piperidide; lactam N-13) | – | – | 40 | 0.58
6 | CC[C@H](C)[C@@H]1NC(=O)[C@H](CC(C)C)N(C)C(=O)[C@H](CC(C)C)N(C)C(=O)CN(C)C(=O)[C@H]([C@@H](C)O)NC(=O)[C@H](CC(C)C)N(C)C(=O)[C@H](CC(C)C)NC(=O)CCN(C)C(=O)C[C@@H](C(=O)N2CCCCC2)NC(=O)[C@H](C)NC(=O)[C@H](Cc2ccccc2)N(C)C(=O)[C@H](Cc2ccccc2)NC(=O)[C@H](CC(C)C)N(C)C1=O [DP-957] ([NMeβAla]L[NMeL]T[Sar][NMeL][NMeL]I[NMeL]F[NMeF]AD-Piperidide; lactam N-13) | – | – | 54 | 4
